Values after ≈ are worked out from the molar mass of the structure shown. Where two headings read alike, the source gives them in different places. Each block holds one molecule with its values, some of them ahead of it.
Tests used:
[1] = system: A549 (lung cancer); test: MTT assay, A549 cells; assay type: cell-based, human; settings: for IC50: Homo sapiens, read-out: IC50 A549
Procedure, shortened: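 After a 72 h incubation of 1 × 10^4 cells per well with compound, absorbance from MTT reduction was converted to percent of the medium-only control.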

[2] = system: MDA-MB-231 (breast cancer); test: MTT assay, MDA-MB-231 cells; assay type: cell-based, human; settings: for IC50: Homo sapiens, read-out: IC50 MDA; for SI MDA: SI = IC50 for normal cell line (HaCaT)/IC50 cancer cell line
Procedure, shortened: (§1)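 HCT116 grew in MEM, PC3 in RPMI and MDA-MB-231 and HaCaT in high-glucose DMEM, all supplemented with 10% FBS and 20 mM HEPES. Compounds were incubated with 1 × 10^4 cells per well for 72 h, and viability was derived from MTT absorbance against untreated cells.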

[3] = system: HaCaT (immortalized human keratinocytes); test: MTT assay, HaCaT normal cells; assay type: cell-based; settings: Homo sapiens, HaCaT, 72 h, read-out: IC50 HaCaT (Table 3)
Procedure, shortened: as §1

[4] = system: MiaPaCa-2 (pancreas cancer); test: MTT assay, MiaPaCa-2 cells; assay type: cell-based, human; settings: for IC50: Homo sapiens, read-out: IC50 MiaPaCa-2; for SI MiaPaCa-2: SI = IC50 for normal cell line (HaCaT)/IC50 cancer cell line
Procedure: (§2) The human cell lines, such as A549 (lung cancer), MDA-MB-231 (breast cancer), MiaPaca-2 (pancreatic cancer), PC3 (metastatic prostate cancer), HCT-116 (colon carcinoma), and HaCaT (immortalized keratinocytes), were sourced from the American Type Culture Collection (ATCC) in Rockville, USA. Culturing conditions varied as follows: HCT116 cells were cultured in MEM (ThermoSci, Waltham, MA, USA), A549, MDA-MB-231, MiaPaca, HaCaT cells in DMEM High Glucose and PC3 cells were cultured in RPMI (Biowest SAS, Nuaillé, France). The growth medium consisted of 10% fetal bovine serum (FBS, Sigma-Aldrich, St. Louis, MO, USA), 20 mM HEPES (Biowest, Nuaillé, France), and antibiotics (100 U/mL of penicillin and 100 μg/mL of streptomycin) from Gibco, Grand Island, NY, USA. […] These compounds were added to 96-well plates containing study cells (1 × 10^4 cells per well) and incubated for 72 h. […] Cell absorbance results were incorporated into the formula for calculating the relative MTT level (%), enabling the assessment of cell viability following exposure to the test compounds. The cell viability percentage represents the MTT reduction in cells treated with the test compounds compared to the control sample, where only the medium was added to the cells.

[5] = system: PC3 (prostate cancer); test: MTT assay, PC3 cells; assay type: cell-based, human; settings: for IC50: Homo sapiens, read-out: IC50 PC3; for SI PC3: SI = IC50 for normal cell line (HaCaT)/IC50 cancer cell line
Procedure: as §2

[6] = system: HCT116 (colon cancer); test: MTT assay, HCT116 cells; assay type: cell-based, human; settings: for IC50: Homo sapiens, read-out: IC50 HCT116; for SI HCT116: SI = IC50 for normal cell line (HaCaT)/IC50 cancer cell line
Procedure: as §2

[7] = system: E. coli ATCC 25922; test: MIC broth microdilution; assay type: cell-based; settings: for MIC: Escherichia coli, read-out: MIC E. coli ATCC 25922
Procedure, shortened: (§3)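 Two-fold serial broth microdilution in Mueller-Hinton II broth, final inoculum adjusted to […]. Compounds dissolved in DMSO, final solvent at most 1%.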

[8] = system: P. aeruginosa ATCC 15442; test: MIC broth microdilution; assay type: cell-based; settings: Pseudomonas aeruginosa, read-out: MIC P. aeruginosa ATCC 15442
Procedure, shortened: as §3

[9] = system: S. aureus ATCC 25923; test: MIC broth microdilution; assay type: cell-based; settings: Staphylococcus aureus, read-out: MIC S. aureus ATCC 25923
Procedure, shortened: as §3

[10] = system: S. aureus ATCC 29213; test: MIC broth microdilution; assay type: cell-based; settings: Staphylococcus aureus, read-out: MIC S. aureus ATCC 29213
Procedure, shortened: as §3

[11] = system: S. aureus ATCC 6538; test: MIC broth microdilution; assay type: cell-based; settings: Staphylococcus aureus, read-out: MIC S. aureus ATCC 6538
Procedure, shortened: as §3

[12] = system: S. aureus NCTC 4163; test: MIC broth microdilution; assay type: cell-based; settings: Staphylococcus aureus, read-out: MIC S. aureus NCTC 4163
Procedure, shortened: as §3

[13] = system: S. epidermidis ATCC 12228; test: MIC broth microdilution; assay type: cell-based; settings: Staphylococcus epidermidis, read-out: MIC S. epidermidis ATCC 12228
Procedure, shortened: as §3

[14] = system: S. epidermidis ATCC 35984; test: MIC broth microdilution; assay type: cell-based; settings: Staphylococcus epidermidis, read-out: MIC S. epidermidis ATCC 35984
Procedure, shortened: as §3

[15] = system: cancer cell lines; test: MTT assay, summary over several cell lines; assay type: cell-based, human; settings: for IC50: Homo sapiens
Procedure: as §2

[16] = system: A549 cells; test: Annexin V-FITC/PI apoptosis flow cytometry, A549; assay type: cell-based, human; settings: representative dot plot, Figure 4A, IC50, 72 h
Procedure: (§4) To analyze the number of cells in early apoptosis, late apoptosis, or necrosis, A549, MiaPaca-2, and HCT-116 cell lines were cultured in 6-well plates with a seeding density of 1 × 10^5 cells per well. These cells were then treated with selected compounds (4, 5, and 8) at their respective IC50 concentrations and incubated for 72 h. Subsequently, a commercially available kit, the FITC: Annexin V Apoptosis Detection Kit I from BD Biosciences Pharmingen in San Jose, CA, USA, was utilized to assess apoptosis. After 72 h the cells were harvested, washed, and labeled with Annexin V-FITC and propidium iodide (PI) following the manufacturer’s protocol (Becton Dickinson), as previously described. The stained cells were analyzed by flow cytometry. The cells were identified as early apoptotic (Annexin V+/PI−) or late apoptotic/necrotic (Annexin V+/PI+).

[17] = system: MiaPaCa-2 cells; test: Annexin V-FITC/PI apoptosis flow cytometry, MiaPaCa-2; assay type: cell-based, human; settings: for MiaPaca: Alive / MiaPaca: Early Apoptotic / MiaPaca: Necrotic / MiaPaca: Necrotic/Late Apoptotic: representative dot plot, Figure 4B, IC50, 72 h
Procedure: as §4

[18] = system: HCT116 cells; test: Annexin V-FITC/PI apoptosis flow cytometry, HCT116; assay type: cell-based, human; settings: representative dot plot, Figure 4C, IC50, 72 h
Procedure: as §4

[19] = system: A549 cells; test: Cell cycle analysis by flow cytometry, A549; assay type: cell-based, human; settings: compound at IC50, 24 h
Procedure: (§5) In brief, cells were seeded at a density of 1 × 10^5 cells/well on a six-well plate and allowed to adhere for 24 h. […] Both population cells (the attached and detached) were collected and centrifuged at 400× g for 5 min at 4 °C. After centrifugation, the cells were washed twice with 0.9% NaCl and subsequently fixed in 500 μL of 70 % cold ethanol overnight.
(§6) Before analysis, the fixed cells underwent another centrifugation step at 850× g for 5 min at 4 °C and were washed with PBS. Following the washes, the cells were incubated with 50 μL of RNase (100 μg/mL) and 200 μL of propidium iodide (PI) (50 μg/mL) at 37 °C for 30 min in the dark. Finally, 100 μL of PBS was added to each sample. Flow cytometry (Becton Dickinson FACS Verse, Franklin Lakes, NJ, USA) was then used to analyze the cell cycle distribution, identifying cells in various stages including sub-G1, G0/G1, S, and G2/M phases. Each assay was performed in quadruplicate.

[20] = system: HCT116 cells; test: Cell cycle analysis by flow cytometry, HCT116; assay type: cell-based, human; settings: IC50, 24 h, compared to the control
Procedure: as §5, §6

[21] = MDA-MB-231, MTT, 72 h, MDA-MB231

Compound: O=C(NCCCl)NCCCCN1c2cc(Cl)ccc2Sc2cc3ccccc3nc21 [Compound 21, 1-(4-(8-Chloroquino[3,2-b]benzo[1,4]thiazin-6-yl)butyl)-3-(2-chloroethyl)urea]
IC50 ([1]; A549, 72 h): 6.98 ± 1.2 µM
IC50 ([2]; MDA-MB-231, 72 h): 7.4 ± 1.2 µM
SI MDA [2]: 0.15
IC50 [3]: 1.1 ± 0.3 µM
IC50 ([4]; MIA PaCa-2, 72 h): 6.4 ± 2.4 µM
SI MiaPaCa-2 [4]: 0.2
IC50 ([5]; PC-3, 72 h): 76.6 ± 9.8 µM
SI PC3 [5]: 0.1
IC50 ([6]; HCT-116, 72 h): 11.3 ± 2.2 µM
SI HCT116 [6]: 0.1
MIC E. coli ATCC 25922 ([7]; 19 h, 35 °C): 8 µg/mL (≈ 17.3 µM)
MIC ([7]; ATCC25922, 19 h): 8 µg/mL (≈ 17.3 µM)
MIC ([8]; ATCC15442, 19 h): > 256 µg/mL
MIC ([9]; ATCC25923, 19 h): 2 µg/mL (≈ 4.33 µM)
MIC ([10]; ATCC29213, 19 h): 2 µg/mL (≈ 4.33 µM)
MIC ([11]; ATCC6538, 19 h): 2 µg/mL (≈ 4.33 µM)
MIC ([12]; NCTC4163, 19 h): 2 µg/mL (≈ 4.33 µM)
MIC ([13]; ATCC12228, 19 h): 2 µg/mL (≈ 4.33 µM)
MIC ([14]; ATCC35984, 19 h): 2 µg/mL (≈ 4.33 µM)
IC50 ([15]; read-out: IC50 range toward four cancerous cell lines): 6.4 to 11.3 µM
A549: Alive [16]: 3.27%
A549: Early Apoptotic [16]: 1.31%
A549: Necrotic [16]: 15.90%
A549: Necrotic/Late Apoptotic [16]: 79.52%
MiaPaca: Alive [17]: 8.66%
MiaPaca: Early Apoptotic [17]: 2.45%
MiaPaca: Necrotic [17]: 37.47%
MiaPaca: Necrotic/Late Apoptotic [17]: 51.42%
HCT-116: Alive [18]: 17.91%
HCT-116: Early Apoptotic [18]: 1.71%
HCT-116: Necrotic [18]: 5.16%
HCT-116: Necrotic/Late Apoptotic [18]: 75.22%
percentage of Sub G1 phase A549 cells [19]: 27.6%
increase in the cell amount at the sub-G1 phase, HCT116 [20]: 12 fold
increase in the number of cells in the G2/M phase, HCT116 [20]: approximately 1.3 fold
increase in the number of cells in the S phase, HCT116 [20]: approximately 2 fold

IC50 ([1]; A549, MTT, 72 h, mean SD): 14.9 ± 2.7 µM
IC50 [2, 21]: 76.5 ± 0.8 µM
IC50 ([4]; MIA PaCa-2, MTT, 72 h): 11.1 ± 0.4 µM
IC50 ([5]; PC-3, MTT, 72 h): 76.5 ± 8.1 µM
IC50 ([6]; HCT-116, MTT, 72 h): 33.5 ± 6.8 µM
MIC ([7]; ATCC25922, 19 h, 35 °C): 256 µg/mL (≈ 899 µM)
MIC ([8]; ATCC15442, 19 h, 35 °C): 256 µg/mL (≈ 899 µM)
MIC ([9]; ATCC25923, 19 h, 35 °C): 8 µg/mL (≈ 28.1 µM)
MIC ([10]; ATCC29213, 19 h, 35 °C): 8 µg/mL (≈ 28.1 µM)
MIC ([11]; ATCC6538, 19 h, 35 °C): 8 µg/mL (≈ 28.1 µM)
MIC ([12]; NCTC4163, 19 h, 35 °C): 8 µg/mL (≈ 28.1 µM)
MIC ([13]; ATCC12228, 19 h, 35 °C): 8 µg/mL (≈ 28.1 µM)
MIC ([14]; ATCC35984, 19 h, 35 °C): 8 µg/mL (≈ 28.1 µM)
IC50 ([15]; range over two cell lines not given, read-out: IC50 range against two tested cell lines): 11.1 to 14.9 µM
Compound: Clc1ccc2c(c1)Nc1nc3ccccc3cc1S2 [Compound 5, 6H-8-chloroquino[3,2-b]benzo[1,4]thiazine]
SI A549 ([1]; SI = IC50 for normal cell line (HaCaT)/IC50 cancer cell line): 3.8
SI MDA [2]: 0.7
IC50 ([3]; MTT, normal cells): 56.5 ± 4.5 µM
SI MiaPaCa-2 [4]: 5.0
SI PC3 [5]: 0.7
SI HCT116 [6]: 1.7
cells in early apoptosis, MiaPaCa-2 ([17]; compound at IC50, 72 h): 4.56%
cells in late apoptosis/necrosis, MiaPaCa-2 ([17]; compound at IC50, 72 h): 23%
MiaPaca: Alive [17]: 72.68%
MiaPaca: Early Apoptotic [17]: 4.56%
MiaPaca: Necrotic [17]: 9.46%
MiaPaca: Necrotic/Late Apoptotic [17]: 13.29%

IC50 ([1]; A549, MTT, 72 h, mean SD): 0.6 ± 0.2 µM
IC50 [2, 21]: 0.8 ± 0.1 µM
IC50 ([4]; MIA PaCa-2, MTT, 72 h): 0.6 ± 0.2 µM
IC50 ([5]; PC-3, MTT, 72 h): 0.8 ± 0.1 µM
IC50 ([6]; HCT-116, MTT, 72 h): 0.59 ± 0.02 µM
Compound: COc1cccc2c1C(=O)c1c(O)c3c(c(O)c1C2=O)C[C@@](O)(C(=O)CO)C[C@@H]3O[C@H]1C[C@H](N)[C@H](O)[C@H](C)O1 [DX, doxorubicin, reference compound]
SI MDA [2]: 0.15
IC50 ([3]; MTT, normal cells): 0.3 ± 0.1 µM
SI PC3 [5]: 0.15
SI HCT116 [6]: 0.5
selectivity index (SI) range ([15]; A549 and MDA-MB-231 versus HaCaT): 0.14–0.15
